Results on two compounds are retold here after publication PMC8403869 (Proceedings of the National Academy of Sciences of the …, 2021).

Experiment [1] addresses T1, human ABCG5-ABCG8 heterodimer (G5G8) (Homo sapiens, UniProt Q9H221+Q9H222).
T1 construct: heterodimer; HEK-293S GnTI- or Pichia pastoris
T1 sequence (Q9H222 1-651): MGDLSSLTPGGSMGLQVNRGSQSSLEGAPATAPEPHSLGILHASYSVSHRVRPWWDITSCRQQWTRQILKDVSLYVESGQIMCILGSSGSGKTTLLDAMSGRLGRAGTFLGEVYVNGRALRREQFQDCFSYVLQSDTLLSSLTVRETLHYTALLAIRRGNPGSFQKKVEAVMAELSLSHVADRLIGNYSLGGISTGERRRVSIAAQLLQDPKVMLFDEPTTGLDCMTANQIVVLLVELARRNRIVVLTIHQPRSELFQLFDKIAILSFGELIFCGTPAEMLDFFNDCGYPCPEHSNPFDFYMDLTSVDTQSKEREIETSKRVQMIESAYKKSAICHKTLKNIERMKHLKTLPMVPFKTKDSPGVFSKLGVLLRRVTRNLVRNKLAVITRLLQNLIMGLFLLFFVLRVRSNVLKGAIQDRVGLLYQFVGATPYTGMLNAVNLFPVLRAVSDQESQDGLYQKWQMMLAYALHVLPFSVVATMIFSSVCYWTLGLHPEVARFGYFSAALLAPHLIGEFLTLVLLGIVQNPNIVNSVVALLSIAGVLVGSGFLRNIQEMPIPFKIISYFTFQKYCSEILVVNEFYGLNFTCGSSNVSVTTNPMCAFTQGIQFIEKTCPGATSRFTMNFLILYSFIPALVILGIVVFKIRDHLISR
T1 sequence (Q9H221 1-673): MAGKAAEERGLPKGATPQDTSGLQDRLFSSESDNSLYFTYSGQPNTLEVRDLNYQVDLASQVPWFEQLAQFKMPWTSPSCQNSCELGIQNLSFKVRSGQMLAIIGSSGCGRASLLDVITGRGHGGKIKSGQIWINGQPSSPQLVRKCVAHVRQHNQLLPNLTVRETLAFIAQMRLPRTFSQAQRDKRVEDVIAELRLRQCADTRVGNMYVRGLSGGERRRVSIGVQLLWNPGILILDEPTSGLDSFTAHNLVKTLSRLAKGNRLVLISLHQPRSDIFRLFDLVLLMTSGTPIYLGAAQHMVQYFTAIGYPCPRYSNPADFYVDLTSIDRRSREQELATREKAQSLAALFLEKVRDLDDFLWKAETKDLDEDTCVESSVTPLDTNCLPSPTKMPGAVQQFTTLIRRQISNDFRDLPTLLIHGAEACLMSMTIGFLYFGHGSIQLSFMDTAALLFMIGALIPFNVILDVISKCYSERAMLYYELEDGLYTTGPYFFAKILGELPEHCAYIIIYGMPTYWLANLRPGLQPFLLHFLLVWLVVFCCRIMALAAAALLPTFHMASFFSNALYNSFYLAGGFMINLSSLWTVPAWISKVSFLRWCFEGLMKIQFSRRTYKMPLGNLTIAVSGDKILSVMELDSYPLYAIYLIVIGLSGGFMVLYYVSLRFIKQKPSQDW
Nature of the experiment: […]phosphate release ATPase assay. In kind it is biochemical. As to conditions: 2.5 mM gamma-[32P]ATP (labelled compound), 2.5 mM MgCl2, liver polar lipids, 1% sodium cholate, pH 7.5, 37 °C.

The next experiment addresses T2, human ABCG1 (G1) (Homo sapiens, UniProt P45844).
T2 construct: full-length cDNA, N-terminal Flag tag; homodimer; WT from Sf9, E242Q from HEK-293S GnTI-; LMNG then digitonin
Nature of the experiment: NADH-coupled ATPase stimulation. In kind it is biochemical. As to conditions: 0.25 mM cholesterol, 0.5-20 mM ATP, 2 mM MgCl2, pH 7.5, 37 °C.

`Nc1ncnc2c1ncn2[C@@H]1O[C@H](COP(=O)(O)OP(=O)(O)OP(=O)(O)O)[C@@H](O)[C@H]1O` [ATP]: the “[32P]phosphate release ATPase assay” value in experiment [1] was “The ATPase activity of purified G5G8 was determined as described”.

Take `CC(C)CCC[C@@H](C)[C@H]1CC[C@H]2[C@@H]3CC=C4C[C@@H](O)CC[C@]4(C)[C@H]3CC[C@]12C` [cholesterol]: on human ABCG1 (G1), the ATPase stimulation entry was “ATPase activity was stimulated by cholesterol but not its diastereomer, epi-cholesterol”.
